Experiments:
[1] = Cmax in overnight fasted Beagle dog at 2.37 mg/kg, po measured upto 24 hrs by LC-MS/MS analysis; type: ADME, organism-based, Canis lupus familiaris; details: in vivo
[2] = Mutagenicity in Salmonella typhimurium TA7003 in presence or absence of S9 fraction pretreated for 90 mins measured after 48 hrs in dark by AMES test; type: toxicity; details: salmonella enterica subsp. enterica serovar typhimurium, s9, 49.5 h; time 2970 min
Cytochrome P450 3A4 = Cytochrome P450 3A4 (Homo sapiens, UniProt P08684); test: Inhibition of human CYP3A4 preincubated for 5 mins followed by NADPH addition measured after 5 to 30 mins by LC-MS analysis; type: ADME; details: time 10-35 min
[3] = Elimination half life in 8 hrs fasted cynomolgus monkey assessed as liver blood flow at 1 mg/kg, iv measured upto 24 hrs by LC-MS/MS analysis; type: ADME, organism-based, Macaca fascicularis; details: in vivo, read-out: beta t1/2 (converted)
Cytochrome P450 2C8 = target: T1, Cytochrome P450 2C8 (Homo sapiens, UniProt P10632); test: Inhibition of human CYP2C8 preincubated for 5 mins followed by NADPH addition measured after 5 to 30 mins by LC-MS analysis; type: ADME
T1 sequence (P10632 whole entry): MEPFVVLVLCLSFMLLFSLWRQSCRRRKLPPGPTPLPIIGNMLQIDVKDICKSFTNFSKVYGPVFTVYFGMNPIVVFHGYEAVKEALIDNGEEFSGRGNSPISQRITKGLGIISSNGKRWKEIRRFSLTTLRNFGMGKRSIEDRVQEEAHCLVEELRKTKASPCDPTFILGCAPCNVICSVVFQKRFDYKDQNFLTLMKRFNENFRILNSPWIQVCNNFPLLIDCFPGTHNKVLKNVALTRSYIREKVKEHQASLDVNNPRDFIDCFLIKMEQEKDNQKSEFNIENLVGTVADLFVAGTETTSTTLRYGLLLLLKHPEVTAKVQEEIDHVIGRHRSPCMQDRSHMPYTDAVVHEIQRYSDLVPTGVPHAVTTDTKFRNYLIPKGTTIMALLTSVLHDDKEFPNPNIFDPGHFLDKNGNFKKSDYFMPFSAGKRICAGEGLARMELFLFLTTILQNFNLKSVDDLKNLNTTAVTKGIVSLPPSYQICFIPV

[4] = Metabolic stability in dog hepatocytes assessed as intrinsic clearance measured per million cells incubated upto 120 mins by LC-MS/MS analysis; type: ADME, cell-based, Canis lupus familiaris, Hepatocyte; details: read-out: CLH
[5] = Chromatographic hydrophobicity index, log D of the compound at pH 7.4 by LC/MS analysis; type: physicochemical; details: buffer
[6] = Plasma protein binding in human at 5 uM measured after 24 hrs by LC-MS/MS analysis; type: ADME, cell-free; details: read-out: PPB (converted)
[7] = AUC in Sprague-Dawley rat at 10 mg/kg, po measured after 24 to 48 hrs by LC-MS/MS analysis; type: ADME, organism-based; details: in vivo, time 24-48 hrs
Cytochrome P450 1A2 = target: T2, Cytochrome P450 1A2 (Homo sapiens, UniProt P05177); test: Inhibition of human CYP1A2 preincubated for 5 mins followed by NADPH addition measured after 5 to 30 mins by LC-MS analysis; type: ADME
T2 sequence (P05177 whole entry): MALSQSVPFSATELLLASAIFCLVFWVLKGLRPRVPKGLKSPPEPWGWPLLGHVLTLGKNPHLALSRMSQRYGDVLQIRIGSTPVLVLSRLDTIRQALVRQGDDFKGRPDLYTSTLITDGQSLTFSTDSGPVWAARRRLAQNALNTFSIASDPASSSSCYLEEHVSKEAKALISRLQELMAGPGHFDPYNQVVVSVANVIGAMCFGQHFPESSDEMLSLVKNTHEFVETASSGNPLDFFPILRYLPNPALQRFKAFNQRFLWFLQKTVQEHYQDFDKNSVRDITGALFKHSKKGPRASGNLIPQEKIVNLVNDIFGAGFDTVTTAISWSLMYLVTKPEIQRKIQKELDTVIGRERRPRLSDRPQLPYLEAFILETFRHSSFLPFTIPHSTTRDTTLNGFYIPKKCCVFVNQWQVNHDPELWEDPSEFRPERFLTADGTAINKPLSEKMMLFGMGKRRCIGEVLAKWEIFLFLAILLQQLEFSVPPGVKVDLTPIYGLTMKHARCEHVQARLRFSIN

[8] = Metabolic stability in human liver microsomes assessed as intrinsic clearance preincubated for 5 mins followed by NADPH addition measured upto 60 mins by LC-MS/MS analysis; type: ADME, Microsome; details: time < 65 min, read-out: CLH
[9] = target: Voltage-gated inwardly rectifying potassium channel KCNH2 (Homo sapiens, UniProt Q12809); test: Inhibition of human ERG stably expressed in CHO cells by automated Qpatch electrophysiological assay; type: toxicity, cell-based
mouse P-gp = test: Apparent permeability across apical to basolateral side in pig LLC-PK1 cells transfected with mouse P-gp at 1 uM measured upto 120 mins; type: ADME, cell-based, Sus scrofa
[10] = Metabolic stability in cynomolgus monkey hepatocytes assessed as intrinsic clearance measured per million cells incubated upto 120 mins by LC-MS/MS analysis; type: ADME, cell-based, Macaca fascicularis, Hepatocyte; details: read-out: CLH
[11] = Oral bioavailability in overnight fasted Beagle dog at 2.37 mg/kg measured upto 24 hrs by LC-MS/MS analysis; type: ADME, organism-based, Canis lupus familiaris; details: in vivo
[12] = Distribution coefficient between 1-Octanol and aqueous phosphate buffer, logD of the compound at pH 7.4 by shake flask method; type: physicochemical; details: 1-octanol/aqueous phosphate buffer
dengue virus type 1 = test: Antiviral activity against DENV-1 TC974#666 infected in african green monkey Vero cells incubated for 24 hrs measured after 3 days post infection by RT-PCR analysis; type: functional, organism-based; details: Dengue virus, TC974#666, Vero; read-out: EC50
[13] = AUC in CD-1 mouse at 10 mg/kg, po measured upto 24 hrs by LC-MS/MS analysis; type: ADME, organism-based; details: in vivo
dengue virus type 3 = test: Antiviral activity against DENV-3 H87 infected in african green monkey Vero cells incubated for 24 hrs measured after 3 days post infection by RT-PCR analysis; type: functional, organism-based; details: Dengue virus, H87, Vero; read-out: EC50
[14] = AUC in overnight fasted Beagle dog at 2.37 mg/kg, po measured upto 24 hrs by LC-MS/MS analysis; type: ADME, organism-based, Canis lupus familiaris; details: in vivo
[15] = Metabolic stability in rat hepatocytes assessed as intrinsic clearance measured per million cells incubated upto 120 mins by LC-MS/MS analysis; type: ADME, cell-based, Hepatocyte; details: read-out: CLH
[16] = Mutagenicity in Salmonella typhimurium TA7006 in presence or absence of S9 fraction pretreated for 90 mins measured after 48 hrs in dark by AMES test; type: toxicity; details: salmonella enterica subsp. enterica serovar typhimurium, s9, 49.5 h; time 2970 min
[17] = Elimination half life in CD-1 mouse at 2.5 mg/kg, iv measured upto 24 hrs by LC-MS/MS analysis; type: ADME, organism-based; details: in vivo, read-out: beta t1/2 (converted)
[18] = Elimination half life in Sprague-Dawley rat at 2.5 mg/kg, iv measured after 24 hrs by LC-MS/MS analysis; type: ADME, organism-based; details: in vivo, read-out: beta t1/2 (converted)
[19] = Clearance in 8 hrs fasted cynomolgus monkey at 1 mg/kg, iv measured upto 24 hrs by LC-MS/MS analysis; type: ADME, organism-based, Macaca fascicularis; details: in vivo
[20] = Clearance in CD-1 mouse at 2.5 mg/kg, iv measured upto 24 hrs by LC-MS/MS analysis; type: ADME, organism-based; details: in vivo

Cytochrome P450 3A4, sequence (P08684 whole entry): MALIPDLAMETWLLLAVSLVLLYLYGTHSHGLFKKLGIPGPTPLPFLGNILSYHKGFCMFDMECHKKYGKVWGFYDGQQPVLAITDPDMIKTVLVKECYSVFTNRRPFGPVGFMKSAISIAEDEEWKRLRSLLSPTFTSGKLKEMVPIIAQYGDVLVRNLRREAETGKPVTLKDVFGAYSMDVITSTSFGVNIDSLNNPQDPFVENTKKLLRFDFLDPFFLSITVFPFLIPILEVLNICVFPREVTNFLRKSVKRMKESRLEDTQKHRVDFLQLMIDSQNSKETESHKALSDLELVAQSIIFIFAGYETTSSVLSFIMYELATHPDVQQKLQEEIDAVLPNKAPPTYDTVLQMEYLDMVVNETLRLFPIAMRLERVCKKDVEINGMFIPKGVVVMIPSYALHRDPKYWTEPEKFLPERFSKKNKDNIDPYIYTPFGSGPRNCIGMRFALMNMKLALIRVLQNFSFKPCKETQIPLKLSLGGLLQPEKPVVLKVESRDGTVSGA
Voltage-gated inwardly rectifying potassium channel KCNH2, sequence (Q12809 whole entry): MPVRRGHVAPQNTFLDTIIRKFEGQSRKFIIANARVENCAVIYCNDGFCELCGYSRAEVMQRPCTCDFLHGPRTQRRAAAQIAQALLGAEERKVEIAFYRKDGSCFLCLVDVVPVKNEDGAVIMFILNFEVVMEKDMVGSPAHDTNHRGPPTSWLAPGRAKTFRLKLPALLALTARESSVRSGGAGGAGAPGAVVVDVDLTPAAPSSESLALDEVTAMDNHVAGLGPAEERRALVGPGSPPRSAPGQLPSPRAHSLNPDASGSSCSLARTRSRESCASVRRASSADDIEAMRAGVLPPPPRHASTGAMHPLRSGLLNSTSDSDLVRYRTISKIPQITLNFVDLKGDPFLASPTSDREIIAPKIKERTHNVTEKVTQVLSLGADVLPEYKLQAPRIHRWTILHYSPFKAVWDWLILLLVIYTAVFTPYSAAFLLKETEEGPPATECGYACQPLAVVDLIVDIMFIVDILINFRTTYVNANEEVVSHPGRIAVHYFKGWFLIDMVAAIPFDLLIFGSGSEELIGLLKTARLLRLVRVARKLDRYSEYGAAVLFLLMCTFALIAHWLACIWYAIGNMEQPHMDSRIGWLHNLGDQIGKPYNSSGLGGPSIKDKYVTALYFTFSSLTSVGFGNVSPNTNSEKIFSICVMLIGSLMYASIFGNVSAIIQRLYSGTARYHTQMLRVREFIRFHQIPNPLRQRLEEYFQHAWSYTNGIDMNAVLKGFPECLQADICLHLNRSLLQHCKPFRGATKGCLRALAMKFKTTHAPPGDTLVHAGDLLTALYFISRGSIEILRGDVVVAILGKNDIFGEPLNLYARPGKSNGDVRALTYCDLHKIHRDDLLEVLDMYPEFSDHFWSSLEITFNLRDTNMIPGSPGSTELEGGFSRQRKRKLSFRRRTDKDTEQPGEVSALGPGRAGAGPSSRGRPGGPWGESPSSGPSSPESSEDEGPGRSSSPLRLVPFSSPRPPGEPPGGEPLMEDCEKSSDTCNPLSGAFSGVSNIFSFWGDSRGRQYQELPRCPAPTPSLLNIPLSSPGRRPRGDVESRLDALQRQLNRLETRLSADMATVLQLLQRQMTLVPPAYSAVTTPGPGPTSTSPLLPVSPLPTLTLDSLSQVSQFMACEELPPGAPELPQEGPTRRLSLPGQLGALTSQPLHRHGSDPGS

In the case of `COc1cc(N[C@H](C(=O)c2c[nH]c3ccc(OC(F)(F)F)cc23)c2ccc(Cl)cc2OC)cc(S(C)(=O)=O)c1` [MOSNODENVIR], the Cmax [1] is reported as 362 ng/mL, the Activity [2] is reported as “Non-Toxic” and the “inhibition (INH)” value (Cytochrome P450 3A4) is reported as “Not Active”. The half-life [3] was 9.57 h, the IC50 (Cytochrome P450 2C8) was 7.4 µM and the hepatocyte CLint [4] was 5.7 µL/min/1e6 cells. The “Chromatographic log D at pH 7.4” value [5] was 3.94, the fraction unbound at 24 h, 5 µM [6] was 0.0014 and the AUC [7] was 15400 ng·h/mL. It also gave an IC50 (Cytochrome P450 1A2) of over 30 µM, a microsomal CLint [8] of under 8 µL/min/mg and an IC50 [9] of over 30 µM. It also gave a Papp A→B at 2 h, 1 µM (mouse P-gp) of 1 ×10⁻⁶ cm/s, a hepatocyte CLint [10] of under 1.9 µL/min/1e6 cells and a bioavailability [11] of 51%. For the same compound, the logD [12] was over 4.1, the EC50 (dengue virus type 1) was 0.0002 µM and the AUC at 24 h [13] was 35600 ng·h/mL. For the same compound, the EC50 (dengue virus type 3) was 0.002 µM, the AUC at 24 h [14] was 2940 ng·h/mL and the hepatocyte CLint [15] was under 1.9 µL/min/1e6 cells. For the same compound, the Activity [16] was “Non-Toxic”, the half-life [17] was 6.2 h and the half-life [18] was 12.4 h. The clearance [19] was 2.45 mL/min/kg and the clearance [20] was 4.97 mL/min/kg.
